Bounds are passed on as bounds.

T2 sequence (Q00975 whole entry): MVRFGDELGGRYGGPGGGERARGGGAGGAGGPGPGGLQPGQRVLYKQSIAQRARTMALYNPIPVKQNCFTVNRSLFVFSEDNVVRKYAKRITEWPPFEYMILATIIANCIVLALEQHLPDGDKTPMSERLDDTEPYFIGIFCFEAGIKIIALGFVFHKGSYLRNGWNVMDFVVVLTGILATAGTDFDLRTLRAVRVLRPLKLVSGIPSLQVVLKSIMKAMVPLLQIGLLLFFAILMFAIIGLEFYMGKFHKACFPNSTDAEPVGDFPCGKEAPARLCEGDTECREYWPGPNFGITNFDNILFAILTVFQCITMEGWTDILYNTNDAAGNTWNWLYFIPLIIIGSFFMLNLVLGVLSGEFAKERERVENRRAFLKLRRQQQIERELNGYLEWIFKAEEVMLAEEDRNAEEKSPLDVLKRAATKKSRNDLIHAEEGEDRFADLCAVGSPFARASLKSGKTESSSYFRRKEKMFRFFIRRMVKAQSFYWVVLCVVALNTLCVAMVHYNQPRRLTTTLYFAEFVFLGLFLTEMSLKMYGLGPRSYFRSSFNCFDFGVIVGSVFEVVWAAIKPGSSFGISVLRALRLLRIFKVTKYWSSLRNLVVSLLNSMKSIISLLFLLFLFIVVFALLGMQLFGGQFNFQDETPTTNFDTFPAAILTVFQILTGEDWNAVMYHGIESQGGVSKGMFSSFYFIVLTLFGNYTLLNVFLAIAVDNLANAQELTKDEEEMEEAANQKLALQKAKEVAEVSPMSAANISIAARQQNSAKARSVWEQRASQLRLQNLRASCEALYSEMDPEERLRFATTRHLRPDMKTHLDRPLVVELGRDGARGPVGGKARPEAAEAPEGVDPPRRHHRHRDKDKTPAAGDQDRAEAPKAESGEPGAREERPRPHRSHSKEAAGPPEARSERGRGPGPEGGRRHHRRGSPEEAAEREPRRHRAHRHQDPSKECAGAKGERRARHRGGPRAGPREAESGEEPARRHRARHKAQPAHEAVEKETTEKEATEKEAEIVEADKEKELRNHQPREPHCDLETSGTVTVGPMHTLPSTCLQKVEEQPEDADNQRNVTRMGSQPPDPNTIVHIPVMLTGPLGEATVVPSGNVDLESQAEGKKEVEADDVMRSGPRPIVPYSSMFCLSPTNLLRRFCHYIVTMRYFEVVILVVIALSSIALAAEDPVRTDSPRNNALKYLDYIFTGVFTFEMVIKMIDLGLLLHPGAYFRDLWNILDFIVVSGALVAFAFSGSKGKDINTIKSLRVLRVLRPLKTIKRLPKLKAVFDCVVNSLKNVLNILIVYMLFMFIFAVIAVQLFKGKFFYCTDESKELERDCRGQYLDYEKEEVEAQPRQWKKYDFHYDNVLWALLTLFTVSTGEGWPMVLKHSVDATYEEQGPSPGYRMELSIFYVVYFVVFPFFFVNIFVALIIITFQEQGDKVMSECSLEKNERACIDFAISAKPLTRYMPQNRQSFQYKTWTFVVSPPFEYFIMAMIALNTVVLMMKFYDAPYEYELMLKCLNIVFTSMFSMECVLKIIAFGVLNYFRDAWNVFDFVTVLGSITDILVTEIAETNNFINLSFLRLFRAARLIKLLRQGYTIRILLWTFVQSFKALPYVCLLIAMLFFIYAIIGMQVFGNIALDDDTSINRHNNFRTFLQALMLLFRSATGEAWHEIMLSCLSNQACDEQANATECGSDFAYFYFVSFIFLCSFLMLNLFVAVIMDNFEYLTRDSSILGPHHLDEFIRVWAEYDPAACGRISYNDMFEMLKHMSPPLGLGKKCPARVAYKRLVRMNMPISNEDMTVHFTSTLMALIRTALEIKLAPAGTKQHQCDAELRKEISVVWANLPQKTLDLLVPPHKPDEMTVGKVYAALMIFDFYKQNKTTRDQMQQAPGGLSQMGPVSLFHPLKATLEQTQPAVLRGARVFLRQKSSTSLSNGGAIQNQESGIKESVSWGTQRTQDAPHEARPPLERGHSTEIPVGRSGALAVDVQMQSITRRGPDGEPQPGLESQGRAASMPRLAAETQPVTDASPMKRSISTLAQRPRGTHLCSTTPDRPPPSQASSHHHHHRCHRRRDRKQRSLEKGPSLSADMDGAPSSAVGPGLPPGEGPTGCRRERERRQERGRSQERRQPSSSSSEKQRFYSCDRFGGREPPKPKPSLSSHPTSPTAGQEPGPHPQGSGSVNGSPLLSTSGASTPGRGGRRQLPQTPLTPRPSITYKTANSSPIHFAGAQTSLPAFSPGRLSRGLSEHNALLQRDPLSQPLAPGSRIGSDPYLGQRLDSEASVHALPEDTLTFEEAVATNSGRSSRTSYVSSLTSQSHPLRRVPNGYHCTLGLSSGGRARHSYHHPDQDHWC
T2 sequence (P54289 25-956 partner limits assumed): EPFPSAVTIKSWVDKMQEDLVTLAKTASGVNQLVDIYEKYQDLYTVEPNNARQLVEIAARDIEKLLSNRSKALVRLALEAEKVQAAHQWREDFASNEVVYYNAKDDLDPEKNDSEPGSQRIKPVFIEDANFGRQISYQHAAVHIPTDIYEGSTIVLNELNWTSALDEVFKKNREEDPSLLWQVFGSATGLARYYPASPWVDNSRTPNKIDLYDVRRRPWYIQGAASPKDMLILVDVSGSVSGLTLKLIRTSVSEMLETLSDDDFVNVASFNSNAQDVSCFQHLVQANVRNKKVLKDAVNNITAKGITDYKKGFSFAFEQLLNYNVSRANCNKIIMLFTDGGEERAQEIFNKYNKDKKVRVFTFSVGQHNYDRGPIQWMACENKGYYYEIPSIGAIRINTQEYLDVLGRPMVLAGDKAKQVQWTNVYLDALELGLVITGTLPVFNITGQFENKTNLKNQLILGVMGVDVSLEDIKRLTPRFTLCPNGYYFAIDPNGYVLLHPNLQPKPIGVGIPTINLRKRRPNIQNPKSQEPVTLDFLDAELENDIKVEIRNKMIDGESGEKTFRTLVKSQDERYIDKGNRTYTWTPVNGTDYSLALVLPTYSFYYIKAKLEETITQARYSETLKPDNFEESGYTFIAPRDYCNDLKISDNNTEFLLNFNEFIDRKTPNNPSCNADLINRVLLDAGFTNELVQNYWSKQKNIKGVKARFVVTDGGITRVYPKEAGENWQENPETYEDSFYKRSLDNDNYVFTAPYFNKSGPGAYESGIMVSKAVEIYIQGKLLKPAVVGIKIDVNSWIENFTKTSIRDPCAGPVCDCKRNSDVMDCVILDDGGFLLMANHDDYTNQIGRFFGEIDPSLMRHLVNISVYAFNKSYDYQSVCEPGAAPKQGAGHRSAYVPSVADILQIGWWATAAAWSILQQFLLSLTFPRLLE
T2 sequence (P54289 957-1103 partner limits assumed): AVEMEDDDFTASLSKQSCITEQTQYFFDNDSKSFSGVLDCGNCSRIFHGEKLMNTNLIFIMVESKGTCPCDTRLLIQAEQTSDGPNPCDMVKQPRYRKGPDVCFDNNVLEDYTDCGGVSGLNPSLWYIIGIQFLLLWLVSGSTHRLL
T2 sequence (P54284 whole entry partner): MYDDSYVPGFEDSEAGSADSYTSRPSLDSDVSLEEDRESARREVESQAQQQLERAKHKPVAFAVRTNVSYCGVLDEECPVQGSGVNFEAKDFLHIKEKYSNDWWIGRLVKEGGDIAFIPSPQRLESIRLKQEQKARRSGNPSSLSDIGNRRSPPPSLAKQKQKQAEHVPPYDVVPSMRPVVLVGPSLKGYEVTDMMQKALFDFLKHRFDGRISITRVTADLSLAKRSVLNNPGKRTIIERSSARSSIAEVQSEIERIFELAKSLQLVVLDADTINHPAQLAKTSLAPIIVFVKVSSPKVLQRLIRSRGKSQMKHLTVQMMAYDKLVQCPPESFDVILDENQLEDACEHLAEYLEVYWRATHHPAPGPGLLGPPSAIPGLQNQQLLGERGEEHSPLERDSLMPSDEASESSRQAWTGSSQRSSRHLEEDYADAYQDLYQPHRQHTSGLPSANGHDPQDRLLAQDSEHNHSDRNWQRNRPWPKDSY

For the first assay, the target named is T1, recombinant rat L-type calcium channel (LTCC) subunits (α1c, α2δ, and β1) (Rattus norvegicus, UniProt P22002).
T1 construct: expressed in transfected cells
As to the kind of experiment: FLIPR calcium mobilization assay for L-type calcium channel. The conditions noted are these: calcium mobilization in vitro assay; HEK293 cells expressing rat LTCC. Format: cell-based. On the procedure:
Recombinant human embryonal kidney cells (HEK293, ATCC) stably transfected with either N-type calcium channel (NTCC) subunits (α1b, α2δ, and ⊖3) or L-type calcium channel (LTCC) subunits (α1, α2δ, and β1) were routinely cultured in growth medium consisting of Dulbecco's Modified Eagles Medium containing 10% FBS, 100 U/mL penicillin, 100 μg/mL streptomycin, 4 mM L-glutamine, 500 μg/mL geneticin (G418), 20 μg/mL Blasticidin S (InVivogen, San Diego, Calif.) and 500 μg/mL zeocin (InVivogen).
FLIPR Calcium Mobilization Assay for L-Type Calcium Channel.
One day prior to performing this assay, HEK293 cells stably expressing recombinant rat L-type calcium channel (LTCC) subunits (α1c, α2δ, and β1) were trypsinized, then seeded on poly-D-lysine-coated 96-well clear-bottom black plates (Becton Dickinson, Franklin Lakes, N.J.) at 75,000 cells/well. On the day of the assay, the plates were washed with LTCC wash buffer (127 mM NaCl, 2 mM MgCl2, 700 μM NaH2PO4, 5 mM CaCl2, 5 mM NaHCO3, 8 mM HEPES, 10 mM glucose, pH 7.4), then loaded with 0.1 mL of LTCC wash buffer containing Fluo-4 (3 μM final concentration, Molecular Probes, Eugene, Oreg.). After 1 hour, the cells were washed with 0.1 mL LTCC wash buffer and resuspended in 0.05 mL LTCC assay buffer (same composition as LTCC wash buffer). Plates were then transferred to a FLIPR^96 for assay. The FLIPR measured basal Fluo-4 fluorescence for 15 seconds, then is added 0.05 mL of each compound tested diluted in LTCC assay buffer at final concentrations ranging from about 846 pM to about 17 μM. Fluo-4 fluorescence was then measured for 5 minutes. 0.1 mL KCl agonist dissolved in LTCC assay buffer was then added to the cells to produce a final concentration of 90 mM KCl, and fluorescence was measured for another 45 seconds. Data were collected over the entire time course and analyzed using Excel, Graph Pad Prism, or an in-house regression analysis software.
Background: A change in cytosolic calcium serves as a functional read-out for many receptors and channels.
One may read the IC50 as the concentration that inhibits the measured activity by half. With `O=C(CN1CCC(N(C2CC2)S(=O)(=O)c2cccc(C(F)(F)F)c2)CC1)Nc1ccc(C(F)(F)F)cc1F` [Compound 75, 2-{4-[Cyclopropyl-(3-trifluoromethylbenzenesulfonyl)amino]-piperidin-1-yl}-N-(2-fluoro-4-trifluoromethylphenyl)-acetamide], the IC50 is above 20000 nM.

The next assay addresses T2, N-type calcium channel (NTCC) (Homo sapiens, UniProt Q00975).
T2 construct: host or cells: IMR32 cells differentiated with dibutyryl cAMP and bromodeoxyuridine
The assay is described as follows: FLIPR calcium mobilization assay for N-type calcium channel. Format: cell-based. The conditions noted are these: calcium mobilization in vitro assay; differentiated IMR32 cells. On the procedure: Unless noted otherwise, cell culture reagents were purchased from Mediatech of Herndon, Md. IMR32 cells (American Type Culture Collection, ATCC, Manassas, Va.) were routinely cultured in growth medium consisting of minimum essential medium containing 10% fetal bovine serum (FBS, Hyclone, Logan, Utah), 100 U/mL penicillin, 100 μg/mL streptomycin, 2 mM L-glutamine, 1 mM sodium pyruvate, and 1× MEM non-essential amino acids. 80-90% confluent flasks of cells were differentiated using the following differentiation medium: Growth medium plus 1 mM dibutyryl cyclic AMP (Sigma, St. Louis, Mo.), and 2.5 μM bromodeoxyuridine (Sigma). Cells were differentiated for 8 days by replacing differentiation medium every 2-3 days.
FLIPR Calcium Mobilization Assay for N-Type Calcium Channel.
One day prior to performing this assay, differentiated IMR32 cells were treated with 1× CellStripper, and seeded on poly-D-lysine-coated 96-well clear-bottom black plates (Becton Dickinson, Franklin Lakes, N.J.) at 200,000 cells/well. On the day of the assay, the cell plates were washed with IMR32 buffer (127 mM NaCl, 1 mM KCl, 2 mM MgCl2, 700 μM NaH2PO4, 5 mM CaCl2, 5 mM NaHCO3, 8 mM HEPES, 10 mM glucose, pH 7.4), then pre-stimulated with KCl and loaded as follows: 0.05 mL of IMR32 buffer, 0.05 mL of each compound tested diluted in IMR32 buffer containing 20 μM nitrendipine (Sigma), and 0.1 mL KCl dissolved in IMR32 buffer, plus Fluo-4 were added (3 μM final concentration, Molecular Probes, Eugene, Oreg.). Final test compound concentrations ranged from about 846 pM to about 17 μM, final nitrendipine concentration was 5 μM, and final KCl concentration was 90 mM. After 1 hour, the cells were washed twice with 0.05 mL of each compound is tested in nitrendipine-containing IMR32 buffer (no KCl or Fluo-4), and then replaced with 0.1 mL of each compound tested in nitrendipine-containing IMR32 buffer. Plates were then transferred to a Fluorimetric Imaging Plate Reader (FLIPR^96, Molecular Devices, Inc., Sunnyvale, Calif.) for assay. The FLIPR measured basal Fluo-4 fluorescence for 315 seconds (i.e., 5 minutes and 15 seconds), then added 0.1 mL KCl agonist dissolved in IMR32 buffer and measured fluorescence for another 45 seconds. Final test compound concentrations on the cells after FLIPR read ranged from about 846 pM to about 17 μM, final nitrendipine concentration was 5 μM, and final KCl concentration was 90 mM. Data were collected over the entire time course and analyzed using Excel, Graph Pad Prism (version 3.02, Graph Pad, San Diego, Calif.), or an in-house non-linear regression analysis software.
Take `O=C(CN1CCC(N(C2CC2)S(=O)(=O)c2cccc(C(F)(F)F)c2)CC1)Nc1ccc(C(F)(F)F)cc1F` [Compound 75, 2-{4-[Cyclopropyl-(3-trifluoromethylbenzenesulfonyl)amino]-piperidin-1-yl}-N-(2-fluoro-4-trifluoromethylphenyl)-acetamide]: the IC50 worked out at 780 nM.

For the molecule `CC(C)N(C1CCN(C(=O)CC(N)c2cccs2)CC1)S(=O)(=O)c1cccc(C(F)(F)F)c1` (centres unmarked) [N-[1-(3-amino-3-thiophen-2-yl-propionyl)-piperidin-4-yl]-N-isopropyl-3-trifluoromethyl-benzenesulfonamide], the IC50 came to 1100 nM.

Take `O=C(CN1CCC(N(C2CC2)S(=O)(=O)c2ccccc2)CC1)Nc1ccc(F)cc1` [Compound 48, 2-[4-(Benzenesulfonylcyclopropylamino)-piperidin-1-yl]-N-(4-fluorophenyl)acetamide]: the half-maximal inhibitory concentration (IC50) came to 2260 nM.

As to `CC(NCCCn1ccnc1)C(=O)N1CCC(N(C(C)C)S(=O)(=O)c2cccc(C(F)(F)F)c2)CC1` (centres unmarked) [Compound 90, N-{1-[2-(3-Imidazol-1-yl-propylamino)propionyl]-piperidin-4-yl}-N-isopropyl-3-trifluoromethylbenzenesulfonamide], the IC50 worked out at 9560 nM.

Turning to `O=C(CN1CCC(N(C2CC2)S(=O)(=O)c2cccc(F)c2)CC1)Nc1ccc(F)cc1` [Compound 46, 2-{4-[Cyclopropyl-(3-fluorobenzenesulfonyl)amino]-piperidin-1-yl}-N-(4-fluorophenyl)acetamide], the IC50 was determined as 2030 nM.

With `C#CCC(N)C(=O)N1CCC(N(C(C)C)S(=O)(=O)c2cccc(C(F)(F)F)c2)CC1` (centres unmarked) [N-[1-(2-amino-pent-4-ynoyl)-piperidin-4-yl]-N-isopropyl-3-trifluoromethyl-benzenesulfonamide], the IC50 is 5960 nM.

Take `O=C(CN1CCC(N(C2CC2)S(=O)(=O)c2ccc(Cl)cc2)CC1)Nc1cc(C(F)(F)F)cc(C(F)(F)F)c1` [Compound 67, N-(3,5-Bis-trifluoromethylphenyl)-2-{4-[(4-chlorobenzenesulfonyl)-cyclopropylamino]-piperidin-1-yl}-acetamide]: the IC50 came to 4170 nM.

As to `CC(C)N(C1CCN(C(=O)C2(N)CCOCC2)CC1)S(=O)(=O)c1cccc(C(F)(F)F)c1` [N-[1-(4-amino-tetrahydro-pyran-4-carbonyl)-piperidin-4-yl]-N-isopropyl-3-trifluoromethyl-benzenesulfonamide], the IC50 was found to be 8330 nM.

In the case of `CC(C)N(C1CCN(C(=O)CCNc2ccc(C#N)cc2)CC1)S(=O)(=O)c1cccc(C(F)(F)F)c1` [N-{1-[3-(4-cyano-phenylamino)-propionyl]-piperidin-4-yl}-N-isopropyl-3-trifluoromethyl-benzenesulfonamide], the IC50 worked out at 1390 nM.

With `CCC(NC1CC1)C(=O)N1CCC(N(C(C)C)S(=O)(=O)c2cccc(C(F)(F)F)c2)CC1` (centres unmarked) [Compound 92, N-[1-(2-Cyclopropylaminobutyryl)-piperidin-4-yl]-N-isopropyl-3-trifluoromethylbenzenesulfonamide], the IC50 came out at 5270 nM.

On to `CC(C)N(C1CCN(C(=O)C2CNC2)CC1)S(=O)(=O)c1cccc(C(F)(F)F)c1` [N-[1-(azetidine-3-carbonyl)-piperidin-4-yl]-N-isopropyl-3-trifluoromethyl-benzenesulfonamide], for which the IC50 was determined as 2910 nM.

Regarding `COc1ccc(CN[C@H](C(=O)N2CCC(N(C(C)C)S(=O)(=O)c3cccc(C(F)(F)F)c3)CC2)C(C)C)cc1` [Compound 88a, (S)—N-Isopropyl-N-{1-[2-(4-methoxybenzylamino)-3-methylbutyryl]-piperidin-4-yl}-3-trifluoromethylbenzenesulfonamide], the IC50 was determined as 1730 nM.

For the molecule `Cc1cccc(S(=O)(=O)N(C2CC2)C2CCN(CC(=O)Nc3ccc(F)cc3)CC2)c1` [Compound 45, 2-{4-[Cyclopropyl-(toluene-3-sulfonyl)amino]-piperidin-1-yl}-N-(4-fluorophenyl)acetamide], the IC50 is 1390 nM.

For the molecule `O=C(CN1CCC(N(C2CC2)S(=O)(=O)c2cccc(C(F)(F)F)c2)CC1)Nc1ccc(Cl)cc1OC(F)(F)F` [Compound 76, N-(4-Chloro-2-trifluoromethoxyphenyl)-2-{4-[cyclopropyl-(3-trifluoromethylbenzenesulfonyl)amino]-piperidin-1-yl}-acetamide], the IC50 was 1830 nM.

For `O=C(CC(=O)N1CCC(N(C2CC2)S(=O)(=O)c2cccc(Cl)c2)CC1)Nc1ccc(F)cc1F` [Compound 29, 3-{4-[(3-Chlorobenzenesulfonyl)-cyclopropylamino]-piperidin-1-yl}-N-(2,4-difluorophenyl)-3-oxo-propionamide], the IC50 is 8860 nM.

With `C=CCC(N)C(=O)N1CCC(N(C(C)C)S(=O)(=O)c2cccc(C(F)(F)F)c2)CC1` (centres unmarked) [N-[1-(2-amino-pent-4-enoyl)-piperidin-4-yl]-N-isopropyl-3-trifluoromethyl-benzenesulfonamide], the IC50 amounted to 2940 nM.

In the case of `CC(C)CNC(=O)CN1CCC(N(C)S(=O)(=O)c2ccccc2)CC1` [2-[4-(benzenesulfonyl-methyl-amino)-piperidin-1-yl]-N-isobutyl-acetamide], the IC50 is above 20000 nM.

Take `O=C(CC(=O)N1CCC(NS(=O)(=O)c2cccc(C(F)(F)F)c2)CC1)Nc1ccc(F)cc1F` [Compound 115, N-(2,4-Difluorophenyl)-3-oxo-3-[4-(3-trifluoromethylbenzenesulfonylamino)-piperidin-1-yl]-propionamide]: the IC50 came to 3180 nM.

Take `O=C(CNCc1ccc(F)cc1)N1CCC(N(C2CC2)S(=O)(=O)c2ccccc2)CC1` [Compound 98, N-Cyclopropyl-N-{1-[2-(4-fluorobenzylamino)acetyl]-piperidin-4-yl}-benzenesulfonamide]: the IC50 is 2670 nM.

For `Cc1cccc(C)c1NC(=O)CN1CCC(N(C(C)C)S(=O)(=O)c2cccc(C(F)(F)F)c2)CC1` [Compound 42a, N-(2,6-Dimethylphenyl)-2-{4-[isopropyl-(3-trifluoromethylbenzenesulfonyl)amino]-piperidin-1-yl}-acetamide], the IC50 was found to be 1130 nM.

In the case of `O=C(CN1CCC(N(C2CC2)S(=O)(=O)c2cccc(Cl)c2)CC1)Nc1cc(C(F)(F)F)cc(C(F)(F)F)c1` [Compound 66, N-(3,5-Bis-trifluoromethylphenyl)-2-{4-[(3-chlorobenzenesulfonyl)-cyclopropylamino]-piperidin-1-yl}-acetamide], the IC50 worked out at 2530 nM.

In the case of `COc1ccc(C(F)(F)F)cc1NC(=O)CN1CCC(N(C2CC2)S(=O)(=O)c2cccc(C(F)(F)F)c2)CC1` [Compound 83, 2-{4-[Cyclopropyl-(3-trifluoromethylbenzenesulfonyl)amino]-piperidin-1-yl}-N-(2-methoxy-5-trifluoromethylphenyl)-acetamide], the IC50 is 10000 to 20000 nM.

For the origin of these results see patent US8791264B2 (Purdue Pharma L.P., priority 2006, dated 2014).
